Assay results: article PMC3914206

Columns and labels:
Format in all cases: binding
panel of 442 kinases [1] = biological target: T1, panel of 442 kinases (Homo sapiens, UniProt P57059); conditions: kinase SIK; compound concentration 10 µM
T1 construct: purchased KINOMEscan
Text: (§1) We assessed the selectivity of members of this scaffold using the KINOMEscan methodology across a near comprehensive panel of 442 kinases [[18,27]].

panel of 442 kinases [2] = biological target: T2, panel of 442 kinases (Homo sapiens, UniProt P00519, E255K); conditions: Compound Concentration 10 µM
T2 construct: purchased KINOMEscan
T2 sequence (P00519 whole entry E255K): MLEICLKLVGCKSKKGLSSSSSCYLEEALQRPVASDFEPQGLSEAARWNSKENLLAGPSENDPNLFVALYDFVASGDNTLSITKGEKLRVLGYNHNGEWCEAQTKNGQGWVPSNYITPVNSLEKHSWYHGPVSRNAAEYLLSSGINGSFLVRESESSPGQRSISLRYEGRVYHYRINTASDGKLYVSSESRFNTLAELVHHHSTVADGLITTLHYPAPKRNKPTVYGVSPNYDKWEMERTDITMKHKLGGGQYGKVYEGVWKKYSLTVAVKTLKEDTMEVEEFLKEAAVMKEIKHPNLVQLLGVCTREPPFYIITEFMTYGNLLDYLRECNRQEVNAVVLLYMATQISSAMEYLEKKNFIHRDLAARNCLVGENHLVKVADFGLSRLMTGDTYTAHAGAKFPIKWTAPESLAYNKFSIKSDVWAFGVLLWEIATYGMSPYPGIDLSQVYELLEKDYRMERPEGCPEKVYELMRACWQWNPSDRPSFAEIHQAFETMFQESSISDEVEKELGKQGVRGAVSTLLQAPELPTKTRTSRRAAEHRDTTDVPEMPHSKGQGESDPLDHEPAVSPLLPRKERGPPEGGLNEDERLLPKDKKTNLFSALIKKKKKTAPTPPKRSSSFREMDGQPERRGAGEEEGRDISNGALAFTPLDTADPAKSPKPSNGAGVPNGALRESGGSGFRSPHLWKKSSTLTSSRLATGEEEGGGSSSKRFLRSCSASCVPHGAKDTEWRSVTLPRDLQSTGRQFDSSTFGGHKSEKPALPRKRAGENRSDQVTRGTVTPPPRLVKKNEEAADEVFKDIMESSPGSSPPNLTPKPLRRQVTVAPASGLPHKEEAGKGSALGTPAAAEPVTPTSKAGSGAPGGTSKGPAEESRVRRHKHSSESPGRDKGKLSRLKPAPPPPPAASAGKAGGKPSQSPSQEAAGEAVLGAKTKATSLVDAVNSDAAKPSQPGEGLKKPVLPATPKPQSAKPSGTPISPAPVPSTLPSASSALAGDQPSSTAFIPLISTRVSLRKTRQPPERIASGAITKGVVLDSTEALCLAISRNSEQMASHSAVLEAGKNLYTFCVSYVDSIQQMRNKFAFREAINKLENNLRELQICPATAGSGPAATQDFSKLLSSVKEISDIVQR
Text: as §1

panel of 442 kinases [3] = biological target: T3, panel of 442 kinases (Homo sapiens, UniProt Q9Y6R4); conditions: Compound Concentration 10 µM
T3 construct: purchased KINOMEscan
T3 sequence (Q9Y6R4 whole entry): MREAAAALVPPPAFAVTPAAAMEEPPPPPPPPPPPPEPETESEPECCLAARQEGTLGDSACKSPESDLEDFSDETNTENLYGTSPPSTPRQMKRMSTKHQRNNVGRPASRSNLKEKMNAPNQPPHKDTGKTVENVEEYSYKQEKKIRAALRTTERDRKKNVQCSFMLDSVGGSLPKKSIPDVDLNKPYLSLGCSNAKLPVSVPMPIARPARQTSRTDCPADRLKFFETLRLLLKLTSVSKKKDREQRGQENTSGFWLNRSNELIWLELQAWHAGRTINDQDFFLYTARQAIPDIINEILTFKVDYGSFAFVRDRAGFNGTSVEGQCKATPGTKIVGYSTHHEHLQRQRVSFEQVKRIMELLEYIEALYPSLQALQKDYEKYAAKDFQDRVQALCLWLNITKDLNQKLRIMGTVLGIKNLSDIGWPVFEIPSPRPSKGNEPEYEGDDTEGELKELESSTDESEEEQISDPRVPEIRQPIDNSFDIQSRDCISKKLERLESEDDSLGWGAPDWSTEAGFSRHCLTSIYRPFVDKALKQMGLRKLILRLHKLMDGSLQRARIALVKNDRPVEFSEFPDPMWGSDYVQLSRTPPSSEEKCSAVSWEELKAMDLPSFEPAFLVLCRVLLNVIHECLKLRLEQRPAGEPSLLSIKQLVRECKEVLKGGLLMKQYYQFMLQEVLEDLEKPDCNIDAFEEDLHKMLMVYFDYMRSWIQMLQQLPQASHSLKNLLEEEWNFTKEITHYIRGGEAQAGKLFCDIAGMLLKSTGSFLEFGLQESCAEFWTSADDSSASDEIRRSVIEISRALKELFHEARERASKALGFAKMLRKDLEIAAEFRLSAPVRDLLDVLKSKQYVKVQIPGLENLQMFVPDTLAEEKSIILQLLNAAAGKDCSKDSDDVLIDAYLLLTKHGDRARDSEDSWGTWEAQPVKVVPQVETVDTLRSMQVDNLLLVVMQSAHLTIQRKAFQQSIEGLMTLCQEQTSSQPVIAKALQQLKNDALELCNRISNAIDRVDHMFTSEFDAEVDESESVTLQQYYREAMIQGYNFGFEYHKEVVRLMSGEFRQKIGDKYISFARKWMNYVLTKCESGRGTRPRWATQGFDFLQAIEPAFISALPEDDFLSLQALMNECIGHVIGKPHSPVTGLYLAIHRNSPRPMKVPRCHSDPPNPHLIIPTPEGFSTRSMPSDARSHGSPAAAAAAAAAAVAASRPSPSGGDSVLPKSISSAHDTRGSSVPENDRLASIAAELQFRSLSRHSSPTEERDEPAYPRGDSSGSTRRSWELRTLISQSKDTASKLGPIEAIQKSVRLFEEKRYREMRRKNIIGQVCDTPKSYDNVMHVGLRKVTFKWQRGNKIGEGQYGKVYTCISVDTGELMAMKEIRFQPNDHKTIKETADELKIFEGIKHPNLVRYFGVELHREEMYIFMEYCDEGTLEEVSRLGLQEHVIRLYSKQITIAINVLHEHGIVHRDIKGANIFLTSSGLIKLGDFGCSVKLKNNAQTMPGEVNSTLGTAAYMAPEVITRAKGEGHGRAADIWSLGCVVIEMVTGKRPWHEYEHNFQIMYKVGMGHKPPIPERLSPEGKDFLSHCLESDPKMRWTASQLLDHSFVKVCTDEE
Text: as §1

panel of 442 kinases [4] = biological target: T4, panel of 442 kinases (Homo sapiens, UniProt Q86UE8); conditions: kinase TLK2; compound concentration 10 µM
T4 construct: purchased KINOMEscan
T4 sequence (Q86UE8 whole entry): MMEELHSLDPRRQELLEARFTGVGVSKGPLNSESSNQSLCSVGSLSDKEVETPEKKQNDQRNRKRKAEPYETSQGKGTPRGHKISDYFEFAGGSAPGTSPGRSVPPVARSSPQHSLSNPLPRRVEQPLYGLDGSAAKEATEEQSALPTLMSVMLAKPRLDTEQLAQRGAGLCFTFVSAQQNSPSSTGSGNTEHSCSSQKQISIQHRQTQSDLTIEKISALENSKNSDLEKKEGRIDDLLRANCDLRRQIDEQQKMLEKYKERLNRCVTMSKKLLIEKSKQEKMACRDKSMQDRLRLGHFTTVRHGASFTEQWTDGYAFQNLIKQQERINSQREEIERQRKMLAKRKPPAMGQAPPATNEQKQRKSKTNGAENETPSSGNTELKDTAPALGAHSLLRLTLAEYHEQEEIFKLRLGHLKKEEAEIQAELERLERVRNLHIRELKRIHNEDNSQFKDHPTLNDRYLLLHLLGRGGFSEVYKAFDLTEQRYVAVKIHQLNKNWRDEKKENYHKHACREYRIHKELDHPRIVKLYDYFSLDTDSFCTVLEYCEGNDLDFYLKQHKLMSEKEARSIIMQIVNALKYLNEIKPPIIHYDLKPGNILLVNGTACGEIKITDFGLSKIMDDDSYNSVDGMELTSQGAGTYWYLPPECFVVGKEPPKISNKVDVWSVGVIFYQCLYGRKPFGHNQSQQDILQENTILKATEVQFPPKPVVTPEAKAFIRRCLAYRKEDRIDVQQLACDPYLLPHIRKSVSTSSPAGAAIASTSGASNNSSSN
Text: as §1

T1 sequence (P57059 whole entry): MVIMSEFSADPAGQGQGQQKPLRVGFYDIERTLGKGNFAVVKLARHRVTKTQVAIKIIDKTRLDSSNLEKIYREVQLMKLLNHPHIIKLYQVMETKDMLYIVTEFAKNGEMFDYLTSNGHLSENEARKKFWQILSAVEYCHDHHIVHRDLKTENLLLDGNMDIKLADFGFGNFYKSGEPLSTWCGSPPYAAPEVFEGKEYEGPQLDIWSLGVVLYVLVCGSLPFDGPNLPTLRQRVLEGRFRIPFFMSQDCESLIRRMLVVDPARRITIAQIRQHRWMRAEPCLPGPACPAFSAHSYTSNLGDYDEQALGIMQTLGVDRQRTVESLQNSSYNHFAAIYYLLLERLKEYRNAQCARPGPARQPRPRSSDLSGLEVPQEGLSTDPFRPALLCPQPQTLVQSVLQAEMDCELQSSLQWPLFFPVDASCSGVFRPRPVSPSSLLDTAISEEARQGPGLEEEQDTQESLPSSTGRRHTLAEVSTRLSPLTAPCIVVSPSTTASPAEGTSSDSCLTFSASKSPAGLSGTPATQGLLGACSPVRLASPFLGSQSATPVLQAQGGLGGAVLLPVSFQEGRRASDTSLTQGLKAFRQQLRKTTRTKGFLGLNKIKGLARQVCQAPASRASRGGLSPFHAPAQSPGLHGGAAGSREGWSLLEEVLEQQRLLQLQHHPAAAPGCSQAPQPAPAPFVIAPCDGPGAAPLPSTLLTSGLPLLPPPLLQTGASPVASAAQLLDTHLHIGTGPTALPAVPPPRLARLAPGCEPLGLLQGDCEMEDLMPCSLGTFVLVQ

COc1cc(C(=O)N2CCC(N3CCN(C)CC3)CC2)ccc1Nc1ncc2c(n1)N(C1CCCC1)c1ccccc1C(=O)N2C [Compound 25, 11-cyclopentyl-2-((2-methoxy-4-(4-(4-methylpiperazin-1-yl)piperidine-1-carbonyl)phenyl)amino)-5-methyl-5H-benzo[e]pyrimido[5,4-b][1,4]diazepin-6(11H)-one]
% Ctrl, SIK (panel of 442 kinases [1]): 98 % Ctrl | KINOMEscan: ABL1(E255K)-phosphorylated (panel of 442 kinases [2]): 92 | KINOMEscan: MAP3K4 (panel of 442 kinases [3]): 100 | % Ctrl, TLK2 (panel of 442 kinases [4]): 94 % Ctrl

COc1cc(C(=O)N2CCC(N3CCN(C)CC3)CC2)ccc1Nc1ncc2c(n1)N1CCc3cccc(c31)C(=O)N2C [Compound 24]
% Ctrl, SIK (panel of 442 kinases [1]): 90 % Ctrl | % Ctrl, TLK2 (panel of 442 kinases [4]): 98 % Ctrl

COc1cc(C(=O)N2CCC(N3CCN(C)CC3)CC2)ccc1Nc1ncc2c(n1)N(C)c1ccccc1C(=O)N2C [15 (LRRK2-IN-1)]
% Ctrl, SIK (panel of 442 kinases [1]): 77 % Ctrl | KINOMEscan: ABL1(E255K)-phosphorylated (panel of 442 kinases [2]): 80 | KINOMEscan: MAP3K4 (panel of 442 kinases [3]): 100 | % Ctrl, TLK2 (panel of 442 kinases [4]): 99 % Ctrl

CCOc1cc(C(=O)N2CCC(N3CCN(C)CC3)CC2)ccc1Nc1ncc2c(n1)N(C1CCCC1)c1ccccc1C(=O)N2C [Compound 26]
% Ctrl, SIK (panel of 442 kinases [1]): 100 % Ctrl | KINOMEscan: ABL1(E255K)-phosphorylated (panel of 442 kinases [2]): 100 | KINOMEscan: MAP3K4 (panel of 442 kinases [3]): 100 | % Ctrl, TLK2 (panel of 442 kinases [4]): 100 % Ctrl
